Measured values from the NIST ThermoML archive (doi:10.1016/j.fluid.2009.06.018).

Key:
[1] = refractive index (Na D-line) (dimensionless); conditions: 298.15 K; 101.33 kPa; Liquid; Standard Abbe refractometry
[2] = 298.15 K; 101.33 kPa; Liquid; Vibrating tube method
[3] = xn = mol fraction of the nth substance listed; conditions: 298.15 K, 101 kPa, Liquid, Vibrating tube method
[4] = excess molar enthalpy (molar enthalpy of mixing); xn = mol fraction of the nth substance listed; conditions: 298.15 K, 101 kPa, Liquid, Flow calorimetry

CC(Cl)CCl (stereo unspecified) [1,2-dichloropropane]
Conditions	mass density [kg/m3]	refractive index
[1]	–	1.43656
[2]	1149.03	–

CCOCCOCCOCCO [2-(2-(2-ethoxyethoxy)ethoxy)ethanol]
Conditions	mass density [kg/m3]	refractive index
[1]	–	1.43623
[2]	1016.19	–

CCOCCOCCOCCO [2-(2-(2-ethoxyethoxy)ethoxy)ethanol] + CC(Cl)CCl
Conditions	excess molar enthalpy [kcal/mol]	mass density [kg/m3]
[3], x2 = 0.0522	–	1020.53
[3], x2 = 0.1019	–	1024.84
[3], x2 = 0.1497	–	1029.19
[3], x2 = 0.2027	–	1034.17
[3], x2 = 0.2538	–	1039.19
[3], x2 = 0.3014	–	1044.06
[3], x2 = 0.3475	–	1048.98
[3], x2 = 0.4037	–	1055.22
[3], x2 = 0.4507	–	1060.69
[3], x2 = 0.5006	–	1066.74
[3], x2 = 0.553	–	1073.37
[3], x2 = 0.6023	–	1079.92
[3], x2 = 0.6499	–	1086.58
[3], x2 = 0.7036	–	1094.48
[3], x2 = 0.7524	–	1102.1
[3], x2 = 0.8009	–	1110.06
[3], x2 = 0.8494	–	1118.49
[3], x2 = 0.8988	–	1127.79
[3], x2 = 0.9495	–	1138.04
[4], x2 = 0.067	-0.0506	–
[4], x2 = 0.101	-0.0657	–
[4], x2 = 0.164	-0.104	–
[4], x2 = 0.195	-0.121	–
[4], x2 = 0.253	-0.145	–
[4], x2 = 0.308	-0.1638	–
[4], x2 = 0.36	-0.1773	–
[4], x2 = 0.41	-0.1859	–
[4], x2 = 0.457	-0.1887	–
[4], x2 = 0.501	-0.1888	–
[4], x2 = 0.544	-0.1854	–
[4], x2 = 0.604	-0.174	–
[4], x2 = 0.66	-0.1571	–
[4], x2 = 0.695	-0.144	–
[4], x2 = 0.745	-0.122	–
[4], x2 = 0.807	-0.0893	–
[4], x2 = 0.85	-0.0656	–
[4], x2 = 0.904	-0.036	–
[4], x2 = 0.954	-0.0131	–

CCCOCCOCCO [2-(2-propoxyethoxy)ethanol]
Conditions	mass density [kg/m3]	refractive index
[1]	–	1.42727
[2]	962.74	–

CCCOCCOCCO [2-(2-propoxyethoxy)ethanol] + CC(Cl)CCl
Conditions	excess molar enthalpy [kcal/mol]	mass density [kg/m3]
[3], x2 = 0.054	–	969.58
[3], x2 = 0.105	–	976.29
[3], x2 = 0.1473	–	982.03
[3], x2 = 0.203	–	989.81
[3], x2 = 0.2494	–	996.53
[3], x2 = 0.3	–	1004.1
[3], x2 = 0.3488	–	1011.66
[3], x2 = 0.4014	–	1020.11
[3], x2 = 0.4516	–	1028.46
[3], x2 = 0.5005	–	1036.91
[3], x2 = 0.5504	–	1045.89
[3], x2 = 0.5995	–	1055.07
[3], x2 = 0.6509	–	1065.09
[3], x2 = 0.7009	–	1075.28
[3], x2 = 0.752	–	1086.18
[3], x2 = 0.8015	–	1097.29
[3], x2 = 0.851	–	1109.05
[3], x2 = 0.9018	–	1121.84
[3], x2 = 0.9476	–	1134.08
[4], x2 = 0.06	-0.0351	–
[4], x2 = 0.119	-0.0599	–
[4], x2 = 0.147	-0.0709	–
[4], x2 = 0.202	-0.0895	–
[4], x2 = 0.255	-0.103	–
[4], x2 = 0.306	-0.1117	–
[4], x2 = 0.355	-0.116	–
[4], x2 = 0.402	-0.1173	–
[4], x2 = 0.447	-0.1153	–
[4], x2 = 0.511	-0.107	–
[4], x2 = 0.552	-0.0989	–
[4], x2 = 0.592	-0.0897	–
[4], x2 = 0.648	-0.0737	–
[4], x2 = 0.702	-0.0561	–
[4], x2 = 0.753	-0.0387	–
[4], x2 = 0.802	-0.0225	–
[4], x2 = 0.848	-0.00722	–
[4], x2 = 0.907	0.00621	–
[4], x2 = 0.948	0.00903	–

COCCOCCOCCO [2-[2-(2-methoxyethoxy)ethoxy]ethanol]
Conditions	mass density [kg/m3]	refractive index
[1]	–	1.43673
[2]	1043.3	–

COCCOCCOCCO [2-[2-(2-methoxyethoxy)ethoxy]ethanol] + CC(Cl)CCl
Conditions	excess molar enthalpy [kcal/mol]	mass density [kg/m3]
[3], x2 = 0.0554	–	1047.4
[3], x2 = 0.1	–	1050.82
[3], x2 = 0.1507	–	1054.88
[3], x2 = 0.1999	–	1058.91
[3], x2 = 0.2535	–	1063.43
[3], x2 = 0.2977	–	1067.32
[3], x2 = 0.3483	–	1071.88
[3], x2 = 0.401	–	1076.8
[3], x2 = 0.4512	–	1081.66
[3], x2 = 0.5013	–	1086.65
[3], x2 = 0.5522	–	1091.89
[3], x2 = 0.6013	–	1097.16
[3], x2 = 0.648	–	1102.3
[3], x2 = 0.7005	–	1108.34
[3], x2 = 0.7514	–	1114.4
[3], x2 = 0.7997	–	1120.38
[3], x2 = 0.8567	–	1127.98
[3], x2 = 0.8993	–	1133.84
[3], x2 = 0.9502	–	1141.27
[4], x2 = 0.061	-0.0429	–
[4], x2 = 0.091	-0.0565	–
[4], x2 = 0.15	-0.0912	–
[4], x2 = 0.206	-0.119	–
[4], x2 = 0.26	-0.14	–
[4], x2 = 0.311	-0.1575	–
[4], x2 = 0.36	-0.1693	–
[4], x2 = 0.407	-0.1774	–
[4], x2 = 0.452	-0.1811	–
[4], x2 = 0.496	-0.1814	–
[4], x2 = 0.558	-0.1759	–
[4], x2 = 0.597	-0.1682	–
[4], x2 = 0.654	-0.1526	–
[4], x2 = 0.707	-0.133	–
[4], x2 = 0.757	-0.111	–
[4], x2 = 0.805	-0.0875	–
[4], x2 = 0.851	-0.0629	–
[4], x2 = 0.908	-0.0328	–
[4], x2 = 0.949	-0.0144	–

CCCCOCCOCCO [3,6-dioxa-1-decanol]
Conditions	mass density [kg/m3]	refractive index
[1]	–	1.42998
[2]	948.48	–

CCCCOCCOCCO [3,6-dioxa-1-decanol] + CC(Cl)CCl
Conditions	excess molar enthalpy [kcal/mol]	mass density [kg/m3]
[3], x2 = 0.052	–	954.88
[3], x2 = 0.1	–	961.07
[3], x2 = 0.155	–	968.38
[3], x2 = 0.1997	–	974.56
[3], x2 = 0.2496	–	981.76
[3], x2 = 0.3037	–	989.93
[3], x2 = 0.3497	–	997.2
[3], x2 = 0.4033	–	1006.02
[3], x2 = 0.4504	–	1014.14
[3], x2 = 0.4998	–	1023.03
[3], x2 = 0.5535	–	1033.23
[3], x2 = 0.6001	–	1042.57
[3], x2 = 0.6494	–	1052.96
[3], x2 = 0.7024	–	1064.78
[3], x2 = 0.7527	–	1076.67
[3], x2 = 0.8024	–	1089.22
[3], x2 = 0.8488	–	1101.75
[3], x2 = 0.901	–	1116.84
[3], x2 = 0.9479	–	1131.48
[4], x2 = 0.066	-0.039	–
[4], x2 = 0.098	-0.0499	–
[4], x2 = 0.161	-0.0736	–
[4], x2 = 0.191	-0.086	–
[4], x2 = 0.248	-0.0983	–
[4], x2 = 0.303	-0.107	–
[4], x2 = 0.355	-0.1121	–
[4], x2 = 0.404	-0.113	–
[4], x2 = 0.45	-0.1104	–
[4], x2 = 0.495	-0.105	–
[4], x2 = 0.558	-0.0936	–
[4], x2 = 0.598	-0.0852	–
[4], x2 = 0.654	-0.0686	–
[4], x2 = 0.707	-0.0514	–
[4], x2 = 0.757	-0.0343	–
[4], x2 = 0.803	-0.0186	–
[4], x2 = 0.847	-0.00454	–
[4], x2 = 0.902	0.00837	–
[4], x2 = 0.953	0.00985	–

CCCCOCCOCCOCCO [triethylene glycol monobutyl ether]
Conditions	mass density [kg/m3]	refractive index
[1]	–	1.43973
[2]	988.44	–

CCCCOCCOCCOCCO [triethylene glycol monobutyl ether] + CC(Cl)CCl
Conditions	excess molar enthalpy [kcal/mol]	mass density [kg/m3]
[3], x2 = 0.0919	–	996.32
[3], x2 = 0.1463	–	1001.35
[3], x2 = 0.2006	–	1006.67
[3], x2 = 0.2501	–	1011.79
[3], x2 = 0.3036	–	1017.68
[3], x2 = 0.3548	–	1023.63
[3], x2 = 0.4015	–	1029.38
[3], x2 = 0.4519	–	1035.95
[3], x2 = 0.5032	–	1043.04
[3], x2 = 0.5498	–	1049.9
[3], x2 = 0.6016	–	1058.03
[3], x2 = 0.6526	–	1066.61
[3], x2 = 0.701	–	1075.35
[3], x2 = 0.7502	–	1084.93
[3], x2 = 0.8009	–	1095.6
[3], x2 = 0.851	–	1107.21
[3], x2 = 0.9003	–	1119.7
[3], x2 = 0.9483	–	1133.01
[4], x2 = 0.079	-0.0579	–
[4], x2 = 0.117	-0.0778	–
[4], x2 = 0.154	-0.102	–
[4], x2 = 0.19	-0.121	–
[4], x2 = 0.256	-0.146	–
[4], x2 = 0.317	-0.167	–
[4], x2 = 0.346	-0.1746	–
[4], x2 = 0.401	-0.1859	–
[4], x2 = 0.452	-0.1912	–
[4], x2 = 0.5	-0.1913	–
[4], x2 = 0.545	-0.188	–
[4], x2 = 0.606	-0.1763	–
[4], x2 = 0.645	-0.1648	–
[4], x2 = 0.698	-0.145	–
[4], x2 = 0.746	-0.123	–
[4], x2 = 0.805	-0.0932	–
[4], x2 = 0.859	-0.0635	–
[4], x2 = 0.907	-0.0371	–
[4], x2 = 0.951	-0.0164	–
